In brackets after ≈: the same amount, converted by molar mass. *1 amine or outer side, *2 acyl side, *3 side chain or, on linkers, in order; H or OH if unused. Where a SMILES comes first, the peptide text is derived from it. [ ]: non-standard residue; d: D form. X3 = Cn1c(=O)ccn([C@@H]2S[C@H]([C@@H](O)[C@@H](N[*:1])C(=O)[*:2])[C@H](O)[C@H]2O)c1=O; Orn(N5-OH,N5-Ac) = CC(=O)N(O)CCC[C@H](N)C(=O)O
Tests used:
Neisseria gonorrhoeae = assay: Antimicrobial activity against Neisseria gonorrhoeae assessed as microbial growth inhibition; format: functional
Escherichia coli [1] = assay: Antibacterial activity against wild type Escherichia coli assessed as microbial growth inhibition; format: functional, organism-based
Escherichia coli [2] = assay: Antibacterial activity against enterobactin-deficient Escherichia coli harboring delta entA assessed as microbial growth inhibition; format: functional, organism-based
Escherichia coli [3] = assay: Antibacterial activity against enterobactin-deficient Escherichia coli harboring delta entB assessed as microbial growth inhibition; format: functional, organism-based
Escherichia coli [4] = assay: Antimicrobial activity against Escherichia coli assessed as microbial growth inhibition; format: functional
Staphylococcus aureus = assay: Antimicrobial activity against Staphylococcus aureus assessed as microbial growth inhibition; format: functional
Pseudomonas aeruginosa = assay: Antibacterial activity against Pseudomonas aeruginosa assessed as microbial growth inhibition; format: functional
[5] = tested on: Mycobacterium tuberculosis; assay: Antimicrobial activity against Mycobacterium tuberculosis H37Rv assessed as microbial growth inhibition; format: functional
Proteus vulgaris = assay: Antimicrobial activity against Proteus vulgaris assessed as microbial growth inhibition; format: functional
Salmonella typhi = assay: Antimicrobial activity against Salmonella enterica subsp. enterica serovar Typhi assessed as microbial growth inhibition; format: functional
Salmonella typhimurium = assay: Antimicrobial activity against Salmonella enterica subsp. enterica serovar Typhimurium assessed as increase in microbial growth inhibition; format: functional
Salmonella enteritidis = assay: Antimicrobial activity against Salmonella enterica subsp. enterica serovar Enteritidis assessed as increase in microbial growth inhibition; format: functional
Escherichia coli [6] = assay: Antimicrobial activity against Escherichia coli UTI89 assessed as microbial growth inhibition; format: functional
Escherichia coli [7] = assay: Antimicrobial activity against Escherichia coli ATCC 35218 assessed as microbial growth inhibition; format: functional

CC(=O)N(O)CCC[C@H](NC(=O)[C@H](CCCN(O)C(C)=O)NC(=O)[C@@H](N)CCCN(O)C(C)=O)C(=O)N[C@@H](CO)C(=O)N[C@@H](C(=O)O)[C@H](O)[C@H]1S[C@@H](n2ccc(=O)n(C)c2=O)[C@H](O)[C@H]1O (H-[Orn(N5-OH,N5-Ac)][Orn(N5-OH,N5-Ac)][Orn(N5-OH,N5-Ac)]S[X3]-OH)
MIC (Neisseria gonorrhoeae): 4 ng/mL (≈ 4.21 nM)

CC(=O)Oc1cccc(C(=O)NCCNC(=O)CN2CCN(CC(=O)NCCCC(=O)NC(C(=O)N[C@@H]3C(=O)N4[C@@H]3SC(C)(C)[C@@H]4C(=O)O)c3ccccc3)CCN(CC(=O)NCCNC(=O)c3cccc(OC(C)=O)c3OC(C)=O)CCN(CC(=O)NCCNC(=O)c3cccc(OC(C)=O)c3OC(C)=O)CC2)c1OC(C)=O (some centres undefined)
IC50 (Escherichia coli [1]): 30.2 µM | IC50 (Escherichia coli [2]): 2.1 µM | IC50 (Escherichia coli [3]): 2.1 µM

O=c1[nH]c2ccccc2[nH]/c1=N/N[C@@H]1O[C@H](CO)[C@@H](O)[C@H]1O
MIC (Escherichia coli [4]): 2.07 µM (≈ 0.638 µg/mL) | MIC (Staphylococcus aureus): 2.07 µM (≈ 0.638 µg/mL) | MIC (Pseudomonas aeruginosa): 2.07 µM (≈ 0.638 µg/mL) | MIC [5]: 0.65 µM (≈ 0.2 µg/mL) | MIC (Proteus vulgaris): 2.07 µM (≈ 0.638 µg/mL) | MIC (Salmonella typhi): 7.8 µM (≈ 2.4 µg/mL)

C[C@@H](O)[C@H]1C(=O)N2C(C(=O)O)=C(S[C@H]3C[C@@H](C(=O)N(C)C)N(C(=O)CCCc4cn(CCOCCOCCOCCNC(=O)c5cc(O)c(O)c(C(=O)N[C@H]6COC(=O)[C@@H](NC(=O)c7cccc(O)c7O)COC(=O)[C@@H](NC(=O)c7cccc(O)c7O)COC6=O)c5)nn4)C3)[C@H](C)[C@H]12
MIC (Salmonella typhimurium): 0.01 µM | MIC (Salmonella enteritidis): 0.01 µM | MIC (Escherichia coli [6]): 0.01 µM (≈ 0.0139 µg/mL) | MIC (Escherichia coli [7]): 0.01 µM (≈ 0.0139 µg/mL)
